# Source: publication PMC12590356, “Novel pyrrolo[2,1-a]isoquinoline aryl ketones attenuate carbon nanotube-induced acute lung injury through NF-κB pathway inhibition” (RSC Advances, 2025)
# Entries after “also recorded” stand apart in the source; their conditions may differ.
# Legend:
# [1] = system: phosphorylated IκB and p65; experiment: Western blot of NF-κB pathway in lung tissues; type: in vivo, C57BL/6 mice; conditions: SWCNT-induced ALI mice, 50 mg/kg once a day for 3 d
# From the text: The expression levels of phosphorylated IκB and p65 were meticulously examined. To further delve into and evaluate the impact of compounds 3g and 3k on the NF-κB signaling pathway within SWCNT-induced ALI murine models, western blotting analysis was used to comprehensively assess the activation status of the NF-κB pathway in lung tissues.
# Collectively, novel pyrrolo[2,1-a]isoquinoline aryl ketones represent promising anti-inflammatory candidates for SWCNT-induced pulmonary injury, functioning through NF-κB pathway regulation.
# (§1) Based on the results of the previous in vitro experiments, 3g and 3k were chosen for animal experiments. 3g was dissolved in 5% DMSO and 3k was dissolved in 0.5% sodium carboxymethyl cellulose (CMC-Na). Male C57BL/6 mice were randomly divided into four groups of ten animals each: CON, single-walled carbon nanotubes (SWCNT) model, 3k (50 mg kg^−1) + SWCNT, 3g (50 mg kg^−1) + SWCNT. The SWCNT model group was administered a one-time tracheal drip of 50 μL of SWCNT suspension containing 40 μg of SWCNT (approximately 1.86 mg per kg body weight) per mouse to model ALI. […]
# Lung tissue samples were collected from each mouse. […] The protein concentration was accurately determined using the BCA method. […] ECL chemiluminescent reagent was used to visualize the protein bands, and the gray values of the bands were analyzed using ImageJ software.
# IL-6 [2] = experiment: IL-6 secretion in LPS-stimulated RAW264.7 macrophages (ELISA); type: cell-based, murine; conditions: LPS (0.5 μg/mL)-stimulated RAW264.7 cells, 5, 20, 40 μM, 24 h
# Description: To elucidate the anti-inflammatory mechanisms underlying 3g and 3k, we conducted a comprehensive investigation into their impact on the secretion of pro-inflammatory cytokines, employing an LPS-stimulated RAW264.7 macrophage model. TNF-α and IL-6, which serve as pivotal mediators in the pathogenesis of ALI, are primarily secreted by activated alveolar macrophages, neutrophils, and lung structural cells. […] In this study, RAW264.7 cells were treated with LPS (0.5 μg mL^−1) and varying concentrations of 3g or 3k for 24 hours. […] This mechanistic understanding provides robust support for the therapeutic potential of the novel diaryl ketone scaffold in the ALI management.
# Fig. 2 Compounds 3g and 3k inhibited the cytokine production of RAW264.7 cells stimulated by LPS. […] The levels of IL-6 (A) and TNF-α (B) in the culture medium were measured by ELISA kits. Data are expressed as mean ± SEM for each group of independent experiments (n = 3); *p < 0.05; **p < 0.01; ***p < 0.001 vs. model group.
# Based on the initial screening results, compounds 3g and 3k were selected for further experimentation. […] The levels of TNF-α and IL-6 released into the macrophage supernatant were quantified using ELISA kits sourced from Elabscience (Wuhan, China), according to the manufacturer's guidelines.
# [3] = CCK8 cell viability (cytotoxicity) assay; type: cell-based, murine; conditions: mouse, RAW264.7 cells, means ± SD (n = 3)
# Description: The toxic effect of synthesized compounds was evaluated on RAW264.7 cells utilizing a CCK8 assay kit.
# RAW264.7 cells were seeded in 96-well plates and incubated with various compounds, each at a uniform concentration of 50 μM, for 24 h. Following this incubation, CCK8 was added to the 96-well plates and incubated at 37 °C for 1 h. The control group was cultivated solely in fresh medium. The absorbance at 450 nm was quantified using an enzyme marker.
# IL-6 [4] = experiment: IL-6 in BALF of ALI mice (ELISA); type: in vivo, C57BL/6 mice; conditions: SWCNT-induced ALI mice, 50 mg per kg dose
# Description: (§2) To confirm the in vivo inhibitory effects of 3g and 3k, we examined the levels of pro-inflammatory cytokines in bronchoalveolar lavage fluid (BALF) from ALI mice.
# as §1, with “ALI. A blank tracheal drip of PBS was administered to the negative control. 3k + SWCNT and 3g + SWCNT groups were administered 3k or 3g of 50 mg per kg body weight once a day for 3d. The animals in the CON group received the same volume of 0.5% CMC-Na. The 1st dose was administered 1 h before modeling to avoid excessive damage to mice. The control and model groups were injected intraperitoneally with a blank solvent.” for “ALI.”
# (§3) The collected bronchoalveolar lavage fluid (BALF) was centrifuged to obtain the supernatant. The concentrations of TNF-α and IL-6 in BALF were determined using ELISA. […]
# TNF-α = TNF-α in BALF of ALI mice (ELISA); type: in vivo, C57BL/6 mice; conditions: SWCNT-induced ALI mice, 50 mg per kg dose
# Description: as §2
# as §1, with “ALI. A blank tracheal drip of PBS was administered to the negative control. 3k + SWCNT and 3g + SWCNT groups were administered 3k or 3g of 50 mg per kg body weight once a day for 3d. The animals in the CON group received the same volume of 0.5% CMC-Na. The 1st dose was administered 1 h before modeling to avoid excessive damage to mice. The control and model groups were injected intraperitoneally with a blank solvent.” for “ALI.”
# as §3
# SWCNT-induced ALI mice = experiment: Lung histopathology (H&E) in SWCNT-induced ALI mice; type: in vivo, C57BL/6 mice; conditions: 50 mg/kg once a day for 3 d
# Description: To evaluate the histopathological impact of 3g and 3k on SWCNT-induced ALI, hematoxylin and eosin (H&E) staining was performed on murine lung tissues.
# as §1, with “ALI. A blank tracheal drip of PBS was administered to the negative control. 3k + SWCNT and 3g + SWCNT groups were administered 3k or 3g of 50 mg per kg body weight once a day for 3d. The animals in the CON group received the same volume of 0.5% CMC-Na. The 1st dose was administered 1 h before modeling to avoid excessive damage to mice. The control and model groups were injected intraperitoneally with a blank solvent.” for “ALI.”
# Mouse lung tissues were isolated and stored in a 4% paraformaldehyde solution. […] Representative images of each sample were acquired (magnification ×200) and analyzed using the ImageJ software. […]
Compound,Phosphorylated IκB and p65 levels in lung tissue [1],IL-6 secretion (IL-6 [2]),"viability at 24 h, 50 µM [3]",IL-6 level in BALF (IL-6 [4]),TNF-α level in BALF (TNF-α),Histopathological lung changes (H&E) (SWCNT-induced ALI mice; 50 mg/kg),Histopathological lung changes (H&E) (SWCNT-induced ALI mice)
O=C(c1ccc(F)cc1)c1ccc2c3ccccc3ccn12 [3g],substantially suppressed these phosphorylation events,suppressed cytokine secretion in a dose-dependent manner,86.5 ± 1.2%,effectively suppressed the release of TNF-α and IL-6,effectively suppressed the release of TNF-α,significantly ameliorated these histopathological features; also recorded: superior efficacy in mitigating structural damage and neutrophil infiltration compared to 3k,
Cc1ccccc1C(=O)c1ccc2c3ccccc3ccn12 [3k],substantially suppressed these phosphorylation events,suppressed cytokine secretion in a dose-dependent manner,98.8 ± 4.7%,effectively suppressed the release of TNF-α and IL-6,effectively suppressed the release of TNF-α,,significantly ameliorated these histopathological features
